Here are results for 15 molecules from article PMC9867151, “Anti-HIV Potential of Beesioside I Derivatives as Maturation Inhibitors: Synthesis, 3D-QSAR, Molecular Docking and Molecular Dynamics Simulations” (International Journal of Molecular Sciences, 2023).

The test system of data set [1] is HIV-1NL4-3 Nanoluc-sec virus. The data set is described as follows: Anti-HIV assay: multicycle viral replication in MT4 cells, Nano-Glo luciferase readout. Format: cell-based. The method, then: (§1) All of the synthetic derivatives were evaluated for anti-HIV activity by determining the inhibitory effects on virus replication in MT4 lymphocytes infected by HIV-1NL4-3 Nanoluc-sec virus. Cytotoxic activity tests were also carried out on MT4 cells.
In vitro activity was determined by a previously described HIV-1 infection assay. Briefly, a 96-well microtiter plate was used to set up the screening assay using MT4 cells infected by HIV-1NL4-3 Nanoluc-sec virus in the presence of various concentrations of derivatives. The viral replication thus can be monitored by measuring the luciferase activity using the Promega Nano-Glo Luciferase Assay System.

Data set [2] can be described thus: CellTiter-Glo Luminescent Cytotoxicity Assay. As to conditions: human, MT-4 cells (MT4 lymphocytes). Format: cell-based. As to the method: as §1
(§2) The cytotoxicity of the synthesized derivatives was determined using the CellTiter-Glo® Luminescent Cytotoxicity Assay (Promega, Madison, WI, USA). MT-4 cells were cultured in the presence of various concentrations of the compounds for 3 days. The percentage of viable cells was measured by following the protocol provided by the manufacturer. The CC50 was derived using the Quest Graph™ IC50 Calculator (https://www.aatbio.com/tools/ic50-calculator, accessed on 7 October 2021).

The next data set concerns MT4 cells. The data set is described as follows: CellTiter-Glo Luminescent Cytotoxicity Assay. Format: cell-based. As to conditions: MT-4 cells, 3 days. As to the method:
as §1, §2

Data set [3] concerns HIV-1NL4-3 Nanoluc-sec virus. As to conditions: cited from earlier work.
[4] abbreviates: Human immunodeficiency virus 1, MT4, read-out: PEC50, actual value converted from EC50, 3D-QSAR dataset.
[5] abbreviates: Human immunodeficiency virus 1, MT4, 3D-QSAR dataset, actual values, entries matching the derivatives tested in this paper (Table 1).
Setting [6] is: 3D-QSAR dataset, actual values, ref activity data reported from our laboratory.

Where a name gives a salt, the structure may show the parent alone. Read-outs that look alike come from different tables or passages of the source.

Molecule `CC(=O)O[C@H]1[C@@H](OC(C)=O)[C@@]2(C)C3CCC4C(C)(C)[C@@H](OC(=O)CC(C)(C)C(=O)OCc5ccccc5)CC[C@@]45C[C@@]35CC[C@@]23CO[C@@]2(C(C)(C)O)CC[C@](C)(O2)[C@@H]13` (stereo partly drawn) (as salt: succinate) [3b, (20S,24S)-15β,16β-Diacetoxy-18,24;20,24-diepoxy-9,19-cyclolanostane-3β,25-diol-3-O-4′-(benzyloxy) carbonyl-3′,3′-dimethylsuccinate] yielded a melting point of 188 to 190 °C.

On to `CC(C)(CC(=O)O[C@H]1CC[C@]23C[C@]24CC[C@]25CO[C@@]6(C(C)(C)O)CC[C@](C)(O6)[C@H]2[C@@H](O)[C@@H](O)[C@@]5(C)C4CCC3C1(C)C)C(=O)O` (stereo partly drawn) [3 ^a], for which the EC50 in data set [1] (setting [4]) was 0.12 µM.

In the case of `CC(=O)O[C@H]1[C@@H](OC(C)=O)[C@@]2(C)C3CCC4C(C)(C)[C@@H](OC(=O)CC(C)(C)C(=O)OCc5ccccc5)CC[C@@]45C[C@@]35CC[C@@]23CO[C@@]2(C(C)(C)O)CC[C@](C)(O2)[C@@H]13` (stereo partly drawn) [3b, (20S,24S)-15β,16β-Diacetoxy-18,24;20,24-diepoxy-9,19-cyclolanostane-3β,25-diol-3-O-4′-(benzyloxy) carbonyl-3′,3′-dimethylsuccinate], the 50% cytotoxic concentration (CC50) at 3 days in data set [2] was greater than 20 µM. Besides, the EC50 in data set [1] (Human immunodeficiency virus 1, NL43, MT4, read-out: EC50 (μM) NL4-3, MT4 cells infected by HIV-1NL4-3 Nanoluc-sec virus, mean +/− SD of 3 tests) amounted to 0.28 µM.

`Cc1cn([C@H]2C[C@H](N=[N+]=[N-])[C@@H](CO)O2)c(=O)[nH]c1=O` [AZT, reference compound] returned a CC50 with MT4 cells greater than 0.3 µM. Besides, the EC50 in data set [1] (MT4 cells infected by HIV-1NL4-3 Nanoluc-sec virus, mean +/− SD of 3 tests, read-out: EC50 (μM) NL4-3) stood at 0.024 ± 0.0045 µM.

For `CC(=O)OC1C2C3(C)CCC(C(C)(C)O)(OCC24CCC25CC26CCC(OC(=O)CC(C)(C)C(=O)O)C(C)(C)C6CCC5C4(C)C1OC(C)=O)O3` [DSC, (20S,24S)-15ꞵ,16ꞵ-diacetoxy-18,24; 20,24-diepoxy-9,19-cyclolanostane-3ꞵ,25-diol 3-O-3′,3′-dimethylsuccinate], the EC50 in data set [3] (anti-HIV, previous work) is 25 nM.

For the molecule `CC(=O)OC1C2C3(C)CCC(C(C)(C)O)(OCC24CCC25CC26CCC(OC(=O)CC(C)(C)C(=O)OCc2ccccc2)C(C)(C)C6CCC5C4(C)C1OC(C)=O)O3` (stereo not drawn) [compound 4], the EC50 in data set [1] (setting [5]) and in data set [1] (setting [4]) was 0.285 µM throughout.

With `CC(=O)OC1C2C3(C)CCC(C(C)(C)O)(OCC24CCC25CC26CCC(OC(=O)CC(C)C(=O)O)C(C)(C)C6CCC5C4(C)C1OC(C)=O)O3` (stereo not drawn) [compound 6], the concentration for a half-maximal effect (EC50) was 1110 nM in data set [3] (setting [6]) and 1.11 µM in data set [1] (setting [4]).

Regarding `CC(C)(CC(=O)OC1CCC23CC24CCC25COC6(C(C)(C)O)CCC(C)(O6)C2C(O)C(O)C5(C)C4CCC3C1(C)C)C(=O)OCc1ccccc1` (stereo not drawn) [compound 7], the EC50 in data set [1] (setting [5]) and in data set [1] (setting [4]) was 1.52 µM each time.

For `CC(=O)OC1C2C3(C)CCC(C(C)(C)O)(OCC24CCC25CC26CCC(OC(=O)CC2(CC(=O)O)CCCC2)C(C)(C)C6CCC5C4(C)C1OC(C)=O)O3` (stereo not drawn) [compound 8], the figures for the EC50 in data set [3] (setting [6]) and in data set [1] (setting [4]) were 1590 nM and 1.59 µM, respectively.

In the case of `CC(C)(CC(=O)OC1CCC23CC24CCC25COC6(C(C)(C)O)CCC(C)(O6)C2C(O)C(O)C5(C)C4CCC3C1(C)C)C(=O)O` (stereo not drawn) [compound 9], the EC50 in data set [1] (setting [5]) and in data set [1] (setting [4]) was 1.79 µM in each case.

Regarding `CC(=O)OC1C2C3(C)CCC(C(C)(C)O)(OCC24CCC25CC26CCC(OC2OCC(O)C(O)C2O)C(C)(C)C6CCC5C4(C)C1OC(C)=O)O3` (stereo not drawn) [compound 10], the EC50 in data set [3] (setting [6]) is 2320 nM; in data set [1] (setting [4]), 2.32 µM.

In the case of `CC(=O)OC1C2C3(C)CCC(C(C)(C)O)(OCC24CCC25CC26CCC(OC(C)=O)C(C)(C)C6CCC5C4(C)C1OC(C)=O)O3` (stereo not drawn) [compound 11], the EC50 is 2440 nM in data set [3] (setting [6]) and 2.44 µM in data set [1] (setting [4]).

Regarding `CC(=O)OC1C(O)C2C3(C)CCC(C(C)(C)O)(OCC24CCC25CC26CCC(OC2OCC(O)C(O)C2O)C(C)(C)C6CCC5C14C)O3` (stereo not drawn) [compound 13], the EC50 in data set [3] (setting [6]) is 4850 nM; in data set [1] (setting [4]) it was 4.85 µM.

`CC12CCC(C(C)(C)O)(OCC34CCC56CC57CCC(OC5OCC(O)C(O)C5O)C(C)(C)C7CCC6C3(C)C(O)C(O)C14)O2` (stereo not drawn) [compound 14]: the figures for the EC50 in data set [3] (setting [6]) and in data set [1] (setting [4]) were 7620 nM and 7.62 µM, respectively.

Consider beesioside I [compound 1], for which, in data set [3] (setting [6]), the EC50 was 25 nM. The molecule further had a PEC50 in data set [1] (actual value converted from EC50, 3D-QSAR dataset) of 7.602.
